According to patent US7285687B2 (priority 2002, dated 2007):
Like-named read-outs stand apart in the source and are kept apart here.

Tests used:
male ICR mice [1] = assay: Suppression of spontaneous activity (SA) in mice, i.v.; format: in vivo, mouse; conditions: for ED50: Mus musculus, iv
Description: (§1) Male ICR mice (25-32 g), obtained from Harlan (Dublin, Va.), were housed in groups of five. All animals were kept in a temperature-controlled (20-22° C.) environment with a 12-hour light-dark cycle (lights on at 7 a.m.). Separate mice were used for testing each drug dose in the in vivo behavioral procedures. Brain tissue for binding studies was obtained from male Sprague-Dawley rats (150-200 g) purchased from Harlan Laboratories (Dublin, Va.).
(§2) Measurement of spontaneous activity in mice occurred in standard activity chambers interfaced with a Digiscan Animal Activity Monitor (Omnitech Electronics, Inc., Columbus, Ohio). A standard tail-flick apparatus and a digital thermometer (Fisher Scientific, Pittsburgh, Pa.) were used to measure antinociception and rectal temperature, respectively.
(§3) Resorcinols were synthesized in our labs (Organix, Inc., Woburn, Mass.) according to the procedure specified below and were suspended in a vehicle of absolute ethanol, Emulphor-620 (Rhone-Poulenc, Inc., Princeton, N.J.), and saline in a ratio of 1:1:18. Drugs were administered to the mice intravenously (i.v.) in the tail vein at a volume of 0.1 ml/10 g.
(§4) Prior to testing in the behavioral procedures, mice were acclimated to the experimental setting (ambient temperature 22-24° C.) overnight. Pre-injection control values were determined for rectal temperature and tail-flick latency (in sec). Five min after i.v. injection with drug or vehicle, mice were placed in individual activity chambers and spontaneous activity was measured for 10 min. […] Tail-flick latency was measured at 20 min post-injection. Maximum latency of 10 sec was used. Antinociception was calculated as percent of maximum possible effect {% MPE=[(test−control latency)/(10-control)]×100}. Control latencies typically ranged from 1.5 to 4.0 sec. At 30 min post-injection, rectal temperature was measured. This value was expressed as the difference between control temperature (before injection) and temperatures following drug administration (° C.). Different mice (n=5-6 per dose) were tested for each dose of each compound. Each mouse was tested in each of the 3 procedures.
(§5) Based on data obtained from numerous previous studies with cannabinoids, maximal cannabinoid effects in each procedure were estimated as follows: 90% inhibition of spontaneous activity, 100% MPE in the tail flick procedure, and −6° C. change in rectal temperature. ED50's were defined as the dose at which half maximal effect occurred. For drugs that produced one or more cannabinoid effect, ED50's were calculated separately using least-squares linear regression on the linear part of the dose-effect curve for each measure in the mouse tetrad, plotted against log10 transformation of the dose. For the purposes of potency comparison, potencies were expressed as μmol/kg.

CB2 receptor = target: T1, CB2 receptor (Homo sapiens, UniProt P34972); assay: CB2 binding procedure, displacement of [3H]CP-55,940 from membranes of transfected CHO cells; conditions: for CB1/CB2: ratio of CB1 Ki to CB2 Ki
T1 construct: expressed in transfected cells
T1 sequence (P34972 whole entry): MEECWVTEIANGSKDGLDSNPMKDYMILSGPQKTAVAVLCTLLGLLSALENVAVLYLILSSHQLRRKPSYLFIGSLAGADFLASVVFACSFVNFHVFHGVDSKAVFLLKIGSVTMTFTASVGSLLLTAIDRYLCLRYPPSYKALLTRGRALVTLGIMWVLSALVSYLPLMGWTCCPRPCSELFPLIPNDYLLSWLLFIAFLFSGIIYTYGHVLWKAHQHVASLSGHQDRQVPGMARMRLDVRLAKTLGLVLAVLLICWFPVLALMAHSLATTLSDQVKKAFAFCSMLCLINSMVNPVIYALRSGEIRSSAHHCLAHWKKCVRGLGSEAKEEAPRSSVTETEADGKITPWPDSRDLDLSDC
Description: Membranes for CB2 binding were obtained from CHO cells. The transfected cell line was maintained in Dublecco's Modified Eagle Medium (Gibco BRL, Grand Island, N.Y.) with 10% fetal clone II (HyClone Laboratories, Inc., Logan, Utah) plus 0.3 to 0.5 mg/ml G418 (to maintain selective pressure) under 5% CO2 at 37% C. Cells were harvested with 1 mM EDTA in phosphate-buffered saline and were centrifuged at 1000×g for 5 min at 4% C. The supernatant was saved and the P1 pellet was resuspended in centrifugation buffer. Homogenization and centrifugation were repeated twice and the combined supernatant fractions were centrifuged at 40,000×g for 30 min at 4% C. The P2 pellet was resuspended in centrifugation buffer 2 (Tris HCl, 50 mM; EDTA, 1 mM; and MgCl2, 3 mM, pH 7.4) to a protein concentration of approximately 2 mg/ml. Protein concentrations were determined by the method of Bradford (1976) using Bio-Rad Protein Assay (Bio-Rad, Richmond, Calif.) and BSA standards (fatty acid free, Sigma Chemical Co., St. Louis, Mo.). The membrane preparation was divided into amounts convenient for binding assays and frozen rapidly in dry ice and stored at −80% C.
Binding was initiated by the addition of 50•g of quickly thawed P2 membranes to test tubes containing [^3H]CP-55,940 (final reaction concentration 0.5 nM), an appropriate concentration of unlabeled CP-55,940 or test drug, and sufficient quantity of assay buffer (50 mM Tris-HCl, 1 mM EDTA, 3 mM MgCl2, 5 mg/ml bovine serum albumin, pH 7.4) to bring the total incubation volume to 0.5 ml. Concentration of [^3H]CP-55,940 in saturation studies ranged from 50 to 10,000 pM. […] CP-55,940 and all cannabinoid analogs were-prepared by suspension in assay buffer from a 1 mg/ml ethanolic stock without evaporation of the ethanol (final concentration of no more than 0.4%). In competition studies, analog concentrations ranged from 0.1 nM to 10•M. After incubation at […] for 1 hr, binding was terminated by the addition of 2 ml of ice-cold wash buffer (50 mM Tris-HCl and 1 mg/ml BSA) and vacuum filtration through pre-treated filters in a 12-well sampling manifold (Millipore, Bedford, Mass.). Reaction vessels were washed once with 2 ml of ice-cold wash buffer. Filters were placed into 7-ml plastic scintillation vials (RPI Corp., Mount Prospect, Ill.) with 4 ml of Budget-Solve (RPI Corp.). After shaking for 30 min, the radioactivity present was determined by liquid scintillation spectrometry. Three reaction vessels were used for each drug concentration in each assay. The results represent the combined data of three independent experiments. All assays were performed in siliconized test tubes, which were prepared by air drying (12 hr) inverted borosilicate tubes after two rinses with a 0.1% solution of AquaSil (Pierce, Rockford, Ill.). The GF/C glass-fiber filters (2.4 cm, Baxter, McGaw Park, Ill.) were pre-treated in a 0.1% solution of pH 7.4 polyethylenimine (Sigma Chemical Co.) for at least 6 hr.
(§6) In addition, multiple linear regression was used to calculate the overall degree of relationship between CB1 binding affinity and potency in the mouse measures for all active cannabinoids. […] Ki values for CB1 and CB2 binding were obtained from Scatchard displacement analysis as determined via EBDA program of the KELL software package (Biosoft, Milltown, N.J.).

CB1 receptor = target: T2, CB1 receptor (Rattus norvegicus, UniProt P20272); assay: CB1 binding procedure, displacement of [3H]CP 55,940 from rat whole-brain P2 membranes
T2 construct: whole brain was homogenized and centrifuged; from tissue; host or cells: whole brain of male Sprague-Dawley rats, P2 membrane fraction
T2 sequence (P20272 whole entry): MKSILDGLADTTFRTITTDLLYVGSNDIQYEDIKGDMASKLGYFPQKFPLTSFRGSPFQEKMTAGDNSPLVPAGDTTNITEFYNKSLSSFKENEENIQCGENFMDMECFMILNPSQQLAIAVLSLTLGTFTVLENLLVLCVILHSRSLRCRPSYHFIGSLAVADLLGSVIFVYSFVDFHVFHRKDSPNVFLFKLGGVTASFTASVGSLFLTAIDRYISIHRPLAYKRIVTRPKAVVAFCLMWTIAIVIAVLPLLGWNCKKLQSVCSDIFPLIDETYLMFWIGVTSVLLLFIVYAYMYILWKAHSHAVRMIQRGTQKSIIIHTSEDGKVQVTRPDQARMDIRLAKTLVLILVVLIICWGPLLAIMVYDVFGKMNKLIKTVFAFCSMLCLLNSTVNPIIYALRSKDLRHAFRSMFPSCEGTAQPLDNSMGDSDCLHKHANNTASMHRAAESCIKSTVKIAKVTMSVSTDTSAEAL
Description: as §1
The methods used for tissue preparation and binding have been described previously (Compton et al., 1993) and are similar to those described by Devane et al. (1988). All assays, as described briefly below, were performed in triplicate, and the results represent the combined data from three to six individual experiments.
Following decapitation and rapid removal of the brain, whole brain was homogenized and centrifuged. The resulting pellet was termed P1. The supernatant was saved and combined with the two subsequent supernatants obtained from washing of the P1 pellet. The combined supernatant fractions were centrifuged, resulting in the P2 pellet. After further incubation and centrifuging, this pellet was resuspended in assay buffer to a protein concentration of approximately 2 mg/ml. The membrane preparation was quickly frozen in a bath solution of dry ice and 2-methylbutane (Sigma Chemical Co., St. Louis, Mo.), then stored at −80° C. for no more than 2 weeks. Prior to performing a binding assay an aliquot of frozen membrane was rapidly thawed and protein values determined by the method of Bradford (1976).
Binding was initiated by the addition of 150•g of P2 membrane to test tubes containing 1 nM of [^3H] CP 55,940 (79 Ci/mmol) and a sufficient quantity of buffer to bring the total incubation volume to 1 ml. […] Following incubation at 30° C. for 1 hr, binding was terminated by addition of ice cold buffer and vacuum filtration through pretreated filters in a 12-well sampling manifold (Millipore, Bedford, Mass.). After washing, filters were placed into plastic scintillation vials (Packard, Downer Grove, Ill.) and shaken. The quantity of radioactivity present was determined by liquid scintillation spectrometry.
as §6

male ICR mice [2] = assay: Tail-flick antinociception (TF, % MPE) in mice, i.v.; format: in vivo, mouse; conditions: for T.F. % effect at dose: Table 6
Description: as §1, §2, §3, §4, §5

male ICR mice [3] = assay: Change in rectal temperature (RT) in mice, i.v.; format: in vivo, mouse; conditions: for ED50: Mus musculus, iv; for R.T. effect at dose: Table 6
Description: as §1, §2, §3, §4, §5

male ICR mice [4] = assay: Lethality noted in the mouse behavioral procedures, i.v.; format: in vivo; conditions: @ 30 mg/kg, Table 6
Description: as §1
Resorcinols were synthesized in our labs (Organix, Inc., Woburn, Mass.) according to the procedure specified below and were suspended in a vehicle of absolute ethanol, Emulphor-620 (Rhone-Poulenc, Inc., Princeton, N.J.), and saline in a ratio of 1:1:18. […]
Prior to testing in the behavioral procedures, mice were acclimated to the experimental setting (ambient temperature 22-24° C.) overnight. Pre-injection control values were determined for rectal temperature and tail-flick latency (in sec). Five min after i.v. injection with drug or vehicle, mice were placed in individual activity chambers and spontaneous activity was measured for 10 min. […] Tail-flick latency was measured at 20 min post-injection. […] Antinociception was calculated as percent of maximum possible effect {% MPE=[(test−control latency)/(10-control)]×100}. […] At 30 min post-injection, rectal temperature was measured. […]

## CCCCCCC(C)(C)c1cc(O)c(C2CCSC2)c(O)c1 (stereo not shown) [O-1661, 2-(Tetrahydrothiophen-3-yl)-5-(1′,1′-dimethylheptyl)-resorcinol]
Male ICR mice [1]; Table 6, read-out: S.A. ED50
  ED50: 7.65 mg/kg
CB2 receptor
  CB1/CB2: 5

## CCCCCCC(C)(C)c1cc(O)c(C2CCCCCC2)c(O)c1 [O-1656, 2-Cycloheptyl-5-(1′,1′-dimethyl-heptyl)-resorcinol]
Male ICR mice [1]; 95% confidence limits in parentheses, read-out: ED50 SA (suppression of spontaneous activity)
  ED50: 1.5 µmol/kg
Male ICR mice [1]; Table 6, read-out: S.A. ED50
  ED50: 0.53 mg/kg
CB1 receptor; Table 6, read-out: CB1 KI
  Ki: 17.8 ± 1.4 nM
CB1 receptor; mean ± SEM, [3H]CP 55,940, rat brain membranes, read-out: Ki(nM) CB1
  Ki: 18 ± 1 nM
CB2 receptor; Table 6, read-out: CB2 KI
  Ki: 2.12 ± 0.25 nM
CB2 receptor; mean ± SEM, [3H]CP-55,940, transfected CHO cell membranes, read-out: Ki(nM) CB2
  Ki: 2 ± 0.2 nM
CB2 receptor
  CB1/CB2: 9
Male ICR mice [2]; Mus musculus, iv, 95% confidence limits in parentheses, read-out: ED50 TF (antinociception in tail flick assay)
  ED50: 1.2 µmol/kg
Male ICR mice [2]; Mus musculus, iv, Table 6, read-out: T.F. ED50
  ED50: 0.39 mg/kg
Male ICR mice [3]; 95% confidence limits in parentheses, read-out: ED50 RT (rectal temperature)
  ED50: 0.6 µmol/kg
Male ICR mice [3]; Table 6, read-out: R.T. ED50
  ED50: 0.21 mg/kg

## CCCCCCC(C)(C)c1cc(O)c(C2CCN(C)CC2)c(O)c1 [O-1662, 2-(1-Methylpiperidin-4-yl)-5-(1′,1′-dimethylheptyl)-resorcinol]
Male ICR mice [1]; stimulation, @ 10 mg/kg, Table 6
  S.A. % effect at dose (stim): 77% stim@ 10
Male ICR mice [4]
  Lethality at dose: Lethal
Male ICR mice [2]; @ 10 mg/kg
  T.F. % effect at dose: 7 @ 10%
Male ICR mice [3]; @ 10 mg/kg
  R.T. effect at dose: 1 °C

## CCCCCCc1ccc(O)c(C2CCCCC2)c1O [O-2010, 2-Cyclohexyl-4-hexyl resorcinol]
Male ICR mice [2]; @ 30 mg/kg
  T.F. % effect at dose: 9.0%@ 30

## C=C(C)[C@@H]1CCC(C)=CC1c1c(C)cc(O)cc1O (single isomer, unassigned; (-)) [O-1602]
CB1 receptor; Table 6, read-out: CB1 KI
  Ki: > 10000 nM
CB2 receptor; Table 6, read-out: CB2 KI
  Ki: > 10000 nM
Male ICR mice [2]; Mus musculus, iv, @ 30 mg/kg, Table 6, read-out: T.F. % effect at dose
  inhibition in vivo at 30 mg/kg: 0%
Male ICR mice [3]; @ 30 mg/kg
  R.T. effect at dose: 0.3 @ 30 °C
